Experimental data taken from patent US9802937B2, “Substituted pyrazolo{4,3-D}pyrimidines as kinase inhibitors” (ORIGENIS GMBH, priority 2011, dated 2017).

What was measured:
LRRK2 = LRRK2 (Homo sapiens, UniProt Q5S007); experiment: LRRK2-LRRK2 G2019S-Assay (LanthaScreen Eu Kinase Binding Assay); settings: 5 nM LRRK2 or their mutants, 10 nM tracer 236, RT 1 h; read-out: LRRK2 Activities: IC50
Experimental: In the assay LanthaScreen™ Eu Kinase Binding Assay by Invitrogen Corporation (Carlsbad) the effect of invention of a compound on the phosphorylation is determined by measurement of fluorescence intensity emission ratio based on the binding and displacement of a proprietary, Alexa Fluor® 647-labeled, ATP-competitive kinase inhibitor scaffold (kinase tracer) to the kinase of interest. Binding of the tracer to the kinase is detected using a europium-labeled anti-tag antibody, which binds to the kinase of interest. Simultaneous binding of both the tracer and antibody to the kinase results in a high degree of FRET (fluorescence resonance energy transfer) from the europium (Eu) donor fluorophore to the Alexa Fluor® 647 acceptor fluorophore on the kinase tracer. Binding of an inhibitor to the kinase competes for binding with the tracer, resulting in a loss of FRET. The fluorescence intensity ratio is directly proportional to the amount of peptide phosphorylation.
To the wells of an 384 well small volume plate (Greiner, Frickenhausen) are added (i) the compound under test in 5% DMSO/distilled water (5 μl), (ii) 5 μl of the kinase antibody mixture resulting in a final concentration 5 nM LRRK2 or their mutants, 2 nM EU-Anti-GST antibody in 1× kinase buffer A. The reaction was started with addition of (iii) 5 μl resulting in a final concentration of 10 nM tracer 236. The assay plate was incubated at RT for 1 h and fluorescence intensitiy readings were collected using a TECAN M1000 at two wavelengthes of λex 340/λem 615 nm and λex 340/λm 665 nm with a delay time of 100 μs and an integration time of 200 μs after 60 minutes. The emission ratio was calculated by division of the acceptor/tracer emission ([…]) by the antibody/donor emission ([…]). The inhibitor concentration was plotted versus the emission ratio to determine the IC50 using XLFit 5.0 (IDBS, Guildford) to fit to a sigmoidal dose response curve with a variable slope.

SYK kinase = target: T1, SYK kinase (Homo sapiens, UniProt P43405); experiment: SYK Assay (OMNIA KINASE ASSAY, SOX peptide fluorescence); format: biochemical; settings: apparent Ki calculated from the IC50 using the Cheng-Prusoff equation; 1 mM ATP, 30° C.; read-out: SYK Activities: Ki
T1 construct: purchased Invitrogen, Carlsbad
Outline: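 Continuous Omnia assay: SYK phosphorylation of SOX-labelled Tyr 7 peptide (10 µM) with 1 mM ATP and 0.2 mM DTT at 30 °C. Fluorescence (ex 360/em 485 nm) read every 30 s for 30 min. Reaction velocity versus inhibitor concentration gives IC50, converted to apparent Ki by Cheng-Prusoff.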

Sequence of LRRK2 (Q5S007 970-2527 limits assumed): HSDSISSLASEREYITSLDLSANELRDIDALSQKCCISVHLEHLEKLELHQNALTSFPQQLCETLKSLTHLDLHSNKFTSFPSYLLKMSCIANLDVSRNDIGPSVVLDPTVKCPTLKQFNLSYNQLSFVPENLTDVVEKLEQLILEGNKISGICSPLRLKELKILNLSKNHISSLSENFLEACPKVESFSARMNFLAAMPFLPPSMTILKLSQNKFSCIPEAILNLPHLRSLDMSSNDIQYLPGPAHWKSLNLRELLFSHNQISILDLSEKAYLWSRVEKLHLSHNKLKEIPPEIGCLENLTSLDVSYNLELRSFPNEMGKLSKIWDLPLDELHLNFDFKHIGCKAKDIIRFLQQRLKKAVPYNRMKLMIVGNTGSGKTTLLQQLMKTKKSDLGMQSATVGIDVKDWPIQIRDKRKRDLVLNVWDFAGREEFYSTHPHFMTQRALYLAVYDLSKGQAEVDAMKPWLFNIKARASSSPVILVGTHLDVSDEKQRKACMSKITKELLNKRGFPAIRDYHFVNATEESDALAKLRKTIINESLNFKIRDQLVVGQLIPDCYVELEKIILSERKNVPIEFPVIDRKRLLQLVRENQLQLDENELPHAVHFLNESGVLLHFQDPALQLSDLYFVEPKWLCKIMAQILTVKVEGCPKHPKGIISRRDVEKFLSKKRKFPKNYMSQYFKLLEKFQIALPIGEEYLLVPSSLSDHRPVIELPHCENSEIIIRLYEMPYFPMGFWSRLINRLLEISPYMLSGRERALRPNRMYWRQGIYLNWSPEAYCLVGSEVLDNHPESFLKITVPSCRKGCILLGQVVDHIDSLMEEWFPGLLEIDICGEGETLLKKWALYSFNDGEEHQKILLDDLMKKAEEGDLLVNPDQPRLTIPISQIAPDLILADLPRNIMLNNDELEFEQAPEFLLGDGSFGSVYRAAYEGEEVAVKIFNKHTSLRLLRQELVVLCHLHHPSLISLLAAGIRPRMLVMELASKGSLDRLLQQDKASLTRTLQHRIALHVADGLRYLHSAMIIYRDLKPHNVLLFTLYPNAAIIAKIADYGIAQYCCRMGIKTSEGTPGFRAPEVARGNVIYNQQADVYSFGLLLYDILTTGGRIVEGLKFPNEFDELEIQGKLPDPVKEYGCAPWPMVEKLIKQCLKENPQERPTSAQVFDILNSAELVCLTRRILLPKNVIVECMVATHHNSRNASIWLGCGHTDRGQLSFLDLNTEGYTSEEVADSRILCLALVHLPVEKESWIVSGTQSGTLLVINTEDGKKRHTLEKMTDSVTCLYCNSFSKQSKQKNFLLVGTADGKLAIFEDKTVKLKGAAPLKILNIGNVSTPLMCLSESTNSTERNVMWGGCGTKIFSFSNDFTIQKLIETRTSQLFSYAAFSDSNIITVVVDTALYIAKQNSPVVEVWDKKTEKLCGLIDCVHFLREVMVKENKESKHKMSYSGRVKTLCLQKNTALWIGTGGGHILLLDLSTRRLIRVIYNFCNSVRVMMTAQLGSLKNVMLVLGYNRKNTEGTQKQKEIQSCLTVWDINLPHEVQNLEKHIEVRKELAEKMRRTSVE

IC50 (LRRK2) [nM] | Ki (SYK kinase) [nM] | SMILES
100 to 1000 | 10 to 100 | CN1CCC(c2nc(Nc3ccc4c(c3)NCCO4)c3[nH]ncc3n2)CC1 [Example #93, N-(5-(1-methylpiperidin-4-yl)-1H-pyrazolo[4,3-d]pyrimidin-7-yl)-3,4-dihydro-2H-benzo[b][1,4]oxazin-6-amine]
100 to 1000 | 10 to 100 | COc1ccccc1-c1nc(Nc2ccc3cn[nH]c3c2)c2[nH]ncc2n1 [Example #111, N-(1H-indazol-6-yl)-5-(2-methoxyphenyl)-1H-pyrazolo[4,3-d]pyrimidin-7-amine]
100 to 1000 | 10 to 100 | Cc1nc2cc(Nc3nc(-c4ccccc4)nc4cn[nH]c34)ccc2[nH]1 [Example #9, N-(2-methyl-1H-benzo[d]imidazol-5-yl)-5-phenyl-1H-pyrazolo[4,3-d]pyrimidin-7-amine]
10 to 100 | < 10 | COc1ccc(-c2nc(Nc3ccc(N4CCOCC4)cc3)c3[nH]ncc3n2)cc1 [Example #59, 5-(4-methoxyphenyl)-N-(4-morpholinophenyl)-1H-pyrazolo[4,3-d]pyrimidin-7-amine]
100 to 1000 | < 10 | CC(=O)N1CCN(c2ccc(Nc3nc(-c4cocn4)nc4cn[nH]c34)cc2)CC1 [Example #201, 1-(4-(4-((5-(oxazol-4-yl)-1H-pyrazolo[4,3-d]pyrimidin-7-yl)amino)phenyl)piperazin-1-yl)ethan-1-one]
10 to 100 | 10 to 100 | CN1CCCc2ccc(Nc3nc(-c4cccs4)nc4cn[nH]c34)cc21 [Example #166, 1-methyl-N-(5-(thiophen-2-yl)-1H-pyrazolo[4,3-d]pyrimidin-7-yl)-1,2,3,4-tetrahydroquinolin-7-amine]
100 to 1000 | < 10 | COc1ccc(-c2nc(Nc3ccc(N4CCN(C)CC4)cc3)c3[nH]ncc3n2)cc1 [Example #66, 5-(4-methoxyphenyl)-N-(4-(4-methylpiperazin-1-yl)phenyl)-1H-pyrazolo[4,3-d]pyrimidin-7-amine]
100 to 1000 | 10 to 100 | CN(C)Cc1ccc(Nc2nc(-c3ccccc3F)nc3cn[nH]c23)cc1 [Example #311, N-(4-((dimethylamino)methyl)phenyl)-5-(2-fluorophenyl)-1H-pyrazolo[4,3-d]pyrimidin-7-amine]
100 to 1000 | 10 to 100 | c1ccn2cc(-c3nc(Nc4ccc5[nH]ncc5c4)c4[nH]ncc4n3)nc2c1 [Example #126, 5-(imidazo[1,2-a]pyridin-2-yl)-N-(1H-indazol-5-yl)-1H-pyrazolo[4,3-d]pyrimidin-7-amine]
100 to 1000 | 10 to 100 | COc1ccc(-c2nc(Nc3cc(C4CC4)[nH]n3)c3[nH]ncc3n2)cc1 [Example #86, N-(5-cyclopropyl-1H-pyrazol-3-yl)-5-(4-methoxyphenyl)-1H-pyrazolo[4,3-d]pyrimidin-7-amine]
10 to 100 | 10 to 100 | c1cc(-c2nc(Nc3ccc(N4CCSCC4)cc3)c3[nH]ncc3n2)cs1 [Example #145, N-(4-thiomorpholinophenyl)-5-(thiophen-3-yl)-1H-pyrazolo[4,3-d]pyrimidin-7-amine]
100 to 1000 | < 10 | Fc1cc(Nc2nc(-c3cccs3)nc3cn[nH]c23)ccc1N1CCOCC1 [Example #296, N-(3-fluoro-4-morpholinophenyl)-5-(thiophen-2-yl)-1H-pyrazolo[4,3-d]pyrimidin-7-amine]
100 to 1000 | < 10 | COc1ccc(Nc2nc(-c3ccccc3F)nc3cn[nH]c23)cc1OC [Example #232, N-(3,4-dimethoxyphenyl)-5-(2-fluorophenyl)-1H-pyrazolo[4,3-d]pyrimidin-7-amine]
100 to 1000 | < 10 | CN(C)c1ccc(Nc2nc(-c3ccccc3)nc3cn[nH]c23)cc1 [Example #4, N1,N1-dimethyl-N4-(5-phenyl-1H-pyrazolo[4,3-d]pyrimidin-7-yl)benzene-1,4-diamine]
100 to 1000 | 10 to 100 | c1cc2[nH]ncc2cc1Nc1nc(-c2ccc(N3CCCC3)nc2)nc2cn[nH]c12 [Example #14, N-(1H-indazol-5-yl)-5-(6-(pyrrolidin-1-yl)pyridin-3-yl)-1H-pyrazolo[4,3-d]pyrimidin-7-amine]
100 to 1000 | 10 to 100 | CN1CCC(c2nc(Nc3ccc4[nH]ncc4c3)c3[nH]ncc3n2)CC1 [Example #50, N-(1H-indazol-5-yl)-5-(1-methylpiperidin-4-yl)-1H-pyrazolo[4,3-d]pyrimidin-7-amine]
100 to 1000 | < 10 | COc1cccc(-c2nc(Nc3ccc4cn[nH]c4c3)c3[nH]ncc3n2)c1 [Example #67, N-(1H-indazol-6-yl)-5-(3-methoxyphenyl)-1H-pyrazolo[4,3-d]pyrimidin-7-amine]
100 to 1000 | 10 to 100 | COc1ccc(-c2nc(Nc3cccc(O)c3)c3[nH]ncc3n2)cc1 [Example #80, 3-((5-(4-methoxyphenyl)-1H-pyrazolo[4,3-d]pyrimidin-7-yl)amino)phenol]
100 to 1000 | < 10 | CCN1CCN(c2ccc(Nc3nc(-c4ccccc4)nc4cn[nH]c34)cc2)CC1 [Example #119, N-(4-(4-ethylpiperazin-1-yl)phenyl)-5-phenyl-1H-pyrazolo[4,3-d]pyrimidin-7-amine]
100 to 1000 | 10 to 100 | CN1CCC(c2ccc(Nc3nc(-c4cccs4)nc4cn[nH]c34)cc2)CC1 [Example #209, N-(4-(1-methylpiperidin-4-yl)phenyl)-5-(thiophen-2-yl)-1H-pyrazolo[4,3-d]pyrimidin-7-amine]
10 to 100 | 10 to 100 | COc1ccc(Nc2nc(-c3cscn3)nc3cn[nH]c23)cc1OC [Example #199, N-(3,4-dimethoxyphenyl)-5-(thiazol-4-yl)-1H-pyrazolo[4,3-d]pyrimidin-7-amine]
100 to 1000 | 100 to 1000 | c1cc(Nc2nc(-c3ccc(N4CCCC4)nc3)nc3cn[nH]c23)n[nH]1 [Example #48, N-(1H-pyrazol-3-yl)-5-(6-(pyrrolidin-1-yl)pyridin-3-yl)-1H-pyrazolo[4,3-d]pyrimidin-7-amine]
100 to 1000 | 10 to 100 | CN(C)c1ccc(Nc2nc(-c3ccncc3)nc3cn[nH]c23)cc1 [Example #17, N1,N1-dimethyl-N4-(5-(pyridin-4-yl)-1H-pyrazolo[4,3-d]pyrimidin-7-yl)benzene-1,4-diamine]
100 to 1000 | < 10 | c1ccc(-c2nc(Nc3ccc4[nH]nnc4c3)c3[nH]ncc3n2)cc1 [Example #2, N-(1H-benzo[d][1,2,3]triazol-5-yl)-5-phenyl-1H-pyrazolo[4,3-d]pyrimidin-7-amine]
10 to 100 | < 10 | c1cc(-c2nc(Nc3ccc4cn[nH]c4c3)c3[nH]ncc3n2)cs1 [Example #76, N-(1H-indazol-6-yl)-5-(thiophen-3-yl)-1H-pyrazolo[4,3-d]pyrimidin-7-amine]
10 to 100 | < 10 | COc1ccc(Nc2nc(-c3ccsc3)nc3cn[nH]c23)cc1OC [Example #72, N-(3,4-dimethoxyphenyl)-5-(thiophen-3-yl)-1H-pyrazolo[4,3-d]pyrimidin-7-amine]
10 to 100 | 10 to 100 | COc1cccc(-c2nc(Nc3ccc4c(c3)NCCO4)c3[nH]ncc3n2)c1 [Example #89, N-(5-(3-methoxyphenyl)-1H-pyrazolo[4,3-d]pyrimidin-7-yl)-3,4-dihydro-2H-benzo[b][1,4]oxazin-6-amine]
